Article PMC5688144, “Assay interference and off-target liabilities of reported histone acetyltransferase inhibitors” (Nature Communications, 2017)

Tests used:
[1] = Autofluorescence counter-screen; format: physicochemical; settings: for Fluorescence counter-screen: autofluorescence at eight fluorophore settings, 32 nM-100 μM compound
Experimental: Selected test compounds were assessed for autofluorescence using an adaption of published procedures. […] Final concentration of DMSO was constant at 1.0% (v/v). Compounds and fluorophore standards were transferred as 10 mM DMSO stock solutions to 384-well black polystyrene microplates via Echo 550 dispenser. The plate arrangement was purposefully designed to minimize optical crosstalk by fluorophore standards. All measurements were performed in ALARM NMR buffer (25 mM sodium phosphate, pH 7.0) at 25 °C. Aliquots of 20 μL buffer were dispensed into microplate wells via ThermoFisher Multidrop dispenser. Compounds were shaken for 1 min on a plate shaker, centrifuged briefly for 1 min at 1000×g, then allowed to incubate at RT in buffer for 10 min before measuring fluorescence intensity on a SpectraMax M3 plate reader under reduced lighting. […] Bandwidth filters were set to default mode. Fluorescence intensity was measured for each test compound using each of the eight fluorophore standard settings. Fluorophores present on each plate were then used to construct normalized fluorescence dose-responses (“fluorophore-equivalent concentrations”, FEC). Fluorescence intensity for each test compound was converted to the appropriate FEC.

Absorbance spectra = format: physicochemical; settings: for Absorption max (nm) / Absorbance counter-screen: 25 mM sodium phosphate, pH 7.0; for Absorbance counter-screen: 300-750 nm; for Molar absorptivity: at absorption max
Summary of the method: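 Spectra from 300 to 750 nm were recorded at 100, 50 and 10 μM final compound in 25 mM sodium phosphate pH 7.0 with 2.0% DMSO, after 10 min at RT, read at 25 °C. Significant absorbance meant molar absorptivity above 2000 M^−1 cm^−1 at wavelengths above 300 nm.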

[2] = Fluorescence quenching counter-screen; format: physicochemical; settings: 10 μM fluorophore; 32 nM-100 μM compound
Experimental: Selected test compounds were assessed for fluorescence quenching using adaptions of previously published procedures[9],[24]. Briefly, test compounds and individual fluorophore standards were incubated together. The fluorescence intensity of these mixtures was compared to the fluorescence intensity of the same fluorophore standards minus test compounds. Each microplate contained positive control columns (DMSO plus fixed concentration of a single fluorophore), negative control columns (DMSO), and experimental wells (test compounds plus fixed concentration of a single fluorophore). […] Final concentration of DMSO was constant at 2.0% (v/v). […] All measurements were performed in ALARM NMR buffer (25 mM sodium phosphate, pH 7.0) at 25 °C. Aliquots of 20 μL buffer were dispensed into microplate wells via ThermoFisher Multidrop dispenser. Microplates were shaken for 1 min on a plate shaker, centrifuged briefly for 1 min at 1000×g, then allowed to incubate at RT for 10 min before measuring fluorescence intensity on a SpectraMax M3 plate reader under reduced lighting. Instrument settings for each fluorophore were unchanged from the aforementioned autofluorescence studies.

AmpC β-lactamase = biological target: T1, AmpC β-lactamase (Escherichia coli, UniProt P00811); test: biochemical; set-up: species or system E. coli; settings: for AmpC counter-screen result / AmpC aggregation counter-screen: 10 μM compound; for AmpC counter-screen result: detergent-sensitive modulation; for AmpC aggregation counter-screen: ± 0.01% Triton X-100
T1 construct: Recombinant E. coli AmpC (amino acids 20–377); purchased MyBioSource.com
T1 sequence (P00811 20-377): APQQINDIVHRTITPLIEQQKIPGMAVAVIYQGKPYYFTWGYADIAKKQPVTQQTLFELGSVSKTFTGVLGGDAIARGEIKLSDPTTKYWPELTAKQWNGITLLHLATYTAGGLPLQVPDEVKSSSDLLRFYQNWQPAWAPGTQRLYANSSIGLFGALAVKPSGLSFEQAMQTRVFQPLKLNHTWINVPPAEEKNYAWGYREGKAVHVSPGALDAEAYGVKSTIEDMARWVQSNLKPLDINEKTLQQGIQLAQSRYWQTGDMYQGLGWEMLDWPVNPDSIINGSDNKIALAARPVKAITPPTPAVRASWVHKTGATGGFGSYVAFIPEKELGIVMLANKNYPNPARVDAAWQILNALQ
Summary of the method: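 Compounds at 10 μM (2% DMSO, triplicate) were preincubated 5 min at RT with ~5 nM E. coli AmpC (residues 20–377) in 25 mM sodium phosphate pH 7.0, with or without 0.01% Triton X-100, then given 100 μM nitrocefin. Activity was normalized to DMSO; aggregation was called on a detergent-dependent change >30% (adjusted P <0.05).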

[3] = UPLC-MS gross compound stability in assay buffer; settings: 25 mM sodium phosphate, pH 7.0, 30 °C, no GSH or CoA
Experimental: Select compounds were incubated up to 24 h for additional stability analyses. Chromatograms and mass spectra were qualitatively analyzed for the formation of new peaks and/or loss of parent peaks.

For `Clc1ccc(-c2csc(NN=C3CCCC3)n2)cc1` [Compound 7, CPTH2], the Fluorescence counter-screen [1] was “Negative”, the “Absorption max (nm)” value (Absorbance spectra) was 285 nm and the Absorbance counter-screen (Absorbance spectra) was “Negative”. The Quenching counter-screen [2] was “Flagged (Significant fluorescence quenching was defined as signal reduction greater than 25% of the corresponding fluorophore signal at any test compound concentration)”, the “AmpC counter-screen result” value (AmpC β-lactamase) was “likely aggregators” and the AmpC aggregation counter-screen (AmpC β-lactamase) was “Detergent-sensitive (Aggregators were defined as compounds with significant detergent-dependent changes in AmpC activity (t-test, adjusted P-value <0.05; mean differences greater than 30%))”. For the same compound, the “UPLC-MS buffer stability counter-screen” value [3] was “Gross degradation observed; loss of parent peak, appearance of new peaks”.
In the case of `CC1=NN(c2ccc(C(=O)O)cc2)C(=O)/C1=C/c1ccc(-c2cc(C)c(C)cc2[N+](=O)[O-])o1` [Compound 1, C646], the Fluorescence counter-screen [1] is reported as “Negative”, the “Absorption max (nm)” value (Absorbance spectra) is reported as 405 nm and the Absorbance counter-screen (Absorbance spectra) is reported as “Flagged (Significant absorbance was defined as molar absorptivity constants greater than 2000 M^−1 cm^−1 at wavelengths greater than 300 nm)”. For the same compound, the “Molar absorptivity” value (Absorbance spectra) was 18000 M⁻¹ cm⁻¹, the Quenching counter-screen [2] was “Flagged (Significant fluorescence quenching was defined as signal reduction greater than 25% of the corresponding fluorophore signal at any test compound concentration)” and the “AmpC counter-screen result” value (AmpC β-lactamase) was “likely aggregators”. For the same compound, the AmpC aggregation counter-screen (AmpC β-lactamase) was “Detergent-sensitive (activator)”, the inhibition at 10 µM (AmpC β-lactamase; read-out: % Inhibition, AmpC) was -58 ± 56% and the “UPLC-MS buffer stability counter-screen” value [3] was “Gross degradation observed; loss of parent peak, appearance of new peaks”.
For `Cc1cc(O)cc(C)c1C=C1C(=O)N(Cc2ccccc2)C(=O)N(Cc2ccccc2)C1=O` [Compound 4, EML425], the Fluorescence counter-screen [1] was “Negative”, the “Absorption max (nm)” value (Absorbance spectra) was 425 nm and the Absorbance counter-screen (Absorbance spectra) was “Flagged (Significant absorbance was defined as molar absorptivity constants greater than 2000 M^−1 cm^−1 at wavelengths greater than 300 nm)”. The “Molar absorptivity” value (Absorbance spectra) was 2700 M⁻¹ cm⁻¹, the Quenching counter-screen [2] was “Flagged (Significant fluorescence quenching was defined as signal reduction greater than 25% of the corresponding fluorophore signal at any test compound concentration)” and the “AmpC counter-screen result” value (AmpC β-lactamase) was “likely aggregators”. For the same compound, the AmpC aggregation counter-screen (AmpC β-lactamase) was “Detergent-sensitive (Aggregators were defined as compounds with significant detergent-dependent changes in AmpC activity (t-test, adjusted P-value <0.05; mean differences greater than 30%))” and the “UPLC-MS buffer stability counter-screen” value [3] was “Grossly stable”.
With Plumbagin [Compound 8] the Fluorescence counter-screen [1] was “Negative”, the “Absorption max (nm)” value (Absorbance spectra) was 420 nm and the Absorbance counter-screen (Absorbance spectra) was “Flagged (Significant absorbance was defined as molar absorptivity constants greater than 2000 M^−1 cm^−1 at wavelengths greater than 300 nm)”. The “Molar absorptivity” value (Absorbance spectra) was 3200 M⁻¹ cm⁻¹, the Quenching counter-screen [2] was “Negative” and the AmpC aggregation counter-screen (AmpC β-lactamase) was “Detergent-insensitive”. For the same compound, the “UPLC-MS buffer stability counter-screen” value [3] was “Grossly stable”.
For `COc1ccc(/C(Cl)=C(/C=O)c2ccc(OC)cc2)cc1` [Compound 18, Windorphen], the Fluorescence counter-screen [1] was “Negative”, the “Absorption max (nm)” value (Absorbance spectra) was 345 nm and the Absorbance counter-screen (Absorbance spectra) was “Flagged (Significant absorbance was defined as molar absorptivity constants greater than 2000 M^−1 cm^−1 at wavelengths greater than 300 nm)”. For the same compound, the “Molar absorptivity” value (Absorbance spectra) was 4300 M⁻¹ cm⁻¹, the Quenching counter-screen [2] was “Flagged (Significant fluorescence quenching was defined as signal reduction greater than 25% of the corresponding fluorophore signal at any test compound concentration)” and the AmpC aggregation counter-screen (AmpC β-lactamase) was “Detergent-insensitive”. For the same compound, the “UPLC-MS buffer stability counter-screen” value [3] was “Grossly stable”.
With `COc1ccc(S(=O)(=O)ON=C2C=C(C)C(=O)C(C)=C2)cc1` [Compound 5, L002] the Fluorescence counter-screen [1] was “Negative”, the “Absorption max (nm)” value (Absorbance spectra) was 290 nm and the Absorbance counter-screen (Absorbance spectra) was “Negative”. For the same compound, the Quenching counter-screen [2] was “Negative”, the AmpC aggregation counter-screen (AmpC β-lactamase) was “Detergent-insensitive” and the “UPLC-MS buffer stability counter-screen” value [3] was “Gross degradation observed; loss of parent peak”.
In the case of `O=c1c2cccnc2sn1Cc1ccc(C(F)(F)F)cc1` [Compound 3, PU141], the Fluorescence counter-screen [1] is reported as “Flagged (Significant autofluorescence was defined as compounds with FECs greater than 100 nM at any compound concentration)”, the Fluorophore interference ([1]; fluorophore settings with autofluorescence) is reported as 4MU, AlexaFluor 350 and the “Absorption max (nm)” value (Absorbance spectra) is reported as 315 nm. The Absorbance counter-screen (Absorbance spectra) was “Flagged (Significant absorbance was defined as molar absorptivity constants greater than 2000 M^−1 cm^−1 at wavelengths greater than 300 nm)”, the “Molar absorptivity” value (Absorbance spectra) was 2700 M⁻¹ cm⁻¹ and the Quenching counter-screen [2] was “Negative”. For the same compound, the AmpC aggregation counter-screen (AmpC β-lactamase) was “Detergent-insensitive” and the “UPLC-MS buffer stability counter-screen” value [3] was “Grossly stable”.
With `C=C1C(=O)O[C@H](CCC)[C@H]1C(=O)O` [Compound 6, MB-3] the Fluorescence counter-screen [1] was “Negative”, the “Absorption max (nm)” value (Absorbance spectra) was “Nominal” and the Absorbance counter-screen (Absorbance spectra) was “Negative”. The Quenching counter-screen [2] was “Flagged (Significant fluorescence quenching was defined as signal reduction greater than 25% of the corresponding fluorophore signal at any test compound concentration)”, the AmpC aggregation counter-screen (AmpC β-lactamase) was “Detergent-insensitive” and the “UPLC-MS buffer stability counter-screen” value [3] was “Grossly stable”.
For `CCCC1(c2ccccc2)NC(=O)N(CC(=O)N(C)Cc2c(F)cccc2Cl)C1=O` (centres unmarked) [Compound 21, N-[(2-chloro-6-fluorophenyl)methyl]-2-(2,5-dioxo-4-phenyl-4-propylimidazolidin-1-yl)-N-methylacetamide], the Fluorescence counter-screen [1] was “Negative”, the “Absorption max (nm)” value (Absorbance spectra) was “Nominal” and the Absorbance counter-screen (Absorbance spectra) was “Negative”. The Quenching counter-screen [2] was “Flagged (Significant fluorescence quenching was defined as signal reduction greater than 25% of the corresponding fluorophore signal at any test compound concentration)”, the AmpC aggregation counter-screen (AmpC β-lactamase) was “Detergent-insensitive” and the “UPLC-MS buffer stability counter-screen” value [3] was “Grossly stable”.
In the case of `O=C1/C(=C/c2ccc(O)c(Br)c2)CCC/C1=C\c1ccc(O)c(Br)c1` [Compound 12, HAT inhibitor II], the Fluorescence counter-screen [1] is reported as “Negative”, the “Absorption max (nm)” value (Absorbance spectra) is reported as 355 nm and the Absorbance counter-screen (Absorbance spectra) is reported as “Flagged (Significant absorbance was defined as molar absorptivity constants greater than 2000 M^−1 cm^−1 at wavelengths greater than 300 nm)”. The “Molar absorptivity” value (Absorbance spectra) was 5100 M⁻¹ cm⁻¹, the Quenching counter-screen [2] was “Flagged (Significant fluorescence quenching was defined as signal reduction greater than 25% of the corresponding fluorophore signal at any test compound concentration)” and the AmpC aggregation counter-screen (AmpC β-lactamase) was “Detergent-sensitive (Aggregators were defined as compounds with significant detergent-dependent changes in AmpC activity (t-test, adjusted P-value <0.05; mean differences greater than 30%))”. The “UPLC-MS buffer stability counter-screen” value [3] was “Gross degradation observed; loss of parent peak”.
For `O=C(O[C@@H]1Cc2c(O)cc(O)cc2O[C@@H]1c1cc(O)c(O)c(O)c1)c1cc(O)c(O)c(O)c1` [Compound 10, (-)-Epigallocatechin gallate], the Fluorescence counter-screen [1] was “Negative”, the “Absorption max (nm)” value (Absorbance spectra) was 290 nm and the Absorbance counter-screen (Absorbance spectra) was “Negative”. The Quenching counter-screen [2] was “Flagged (Significant fluorescence quenching was defined as signal reduction greater than 25% of the corresponding fluorophore signal at any test compound concentration)”, the AmpC aggregation counter-screen (AmpC β-lactamase) was “Detergent-insensitive” and the “UPLC-MS buffer stability counter-screen” value [3] was “Gross degradation observed; loss of parent peak, appearance of new peaks”.
